The data set can be described thus: Effect of pH on the stability of lutein/lutein ester (absorbance of acetone aqueous solutions). Format: physicochemical. The conditions noted are these: for Absorbance value: acetone aqueous solution; for Retention: after placing for 96 h at pH 1.5; for Change of absorbance values: under strong acid conditions. As to the method: Effect of pH on the Stability of Lutein/Lutein Ester The acetone aqueous solutions of lutein and lutein ester with pH 1.5 and pH 3 were prepared respectively, and the absorbance values at different time period are shown as follows: […]

Take `CC1=C[C@H](O)CC(C)(C)[C@H]1/C=C/C(C)=C/C=C/C(C)=C/C=C/C=C(C)/C=C/C=C(C)/C=C/C1=C(C)C[C@@H](O)CC1(C)C` [Lutein, lutein]: the Retention is 17.80% and the “Change of absorbance values” was “decrease significantly”. Under “pH 1.5, 0 h”, this compound displayed an Absorbance value of 0.843. The Absorbance value (pH 1.5, 12 h) was 0.559. In addition, the Absorbance value (pH 1.5, 24 h) turned out to be 0.452. This compound yielded an Absorbance value (pH 1.5, 36 h) of 0.368. The Absorbance value (pH 1.5, 48 h) turned out to be 0.267. The compound also had an Absorbance value (pH 1.5, 96 h) of 0.151. In addition, the Absorbance value (pH 3.0, 0 h) is 0.845. The compound further showed an Absorbance value (pH 3.0, 12 h) of 0.566. This compound gave an Absorbance value (pH 3.0, 24 h) of 0.495. Moreover, the Absorbance value (pH 3.0, 36 h) is 0.428. The compound further gave an Absorbance value (pH 3.0, 48 h) of 0.341. Moreover, the Absorbance value (pH 3.0, 96 h) is 0.268.
Regarding lutein ester, the Retention stood at 18.36% and the “Change of absorbance values” is given as “decrease significantly”. The same compound displayed an Absorbance value (pH 1.5, 0 h) of 0.844. This compound showed an Absorbance value (pH 1.5, 12 h) of 0.588. Further, the Absorbance value (pH 1.5, 24 h) is recorded as 0.466. Further, the Absorbance value (pH 1.5, 36 h) is on record as 0.377. The compound further gave an Absorbance value (pH 1.5, 48 h) of 0.259. This compound registered an Absorbance value (pH 1.5, 96 h) of 0.155. Under “pH 3.0, 0 h”, this compound registered an Absorbance value of 0.837. In addition, the Absorbance value (pH 3.0, 12 h) was 0.597. The compound also came in with an Absorbance value (pH 3.0, 24 h) of 0.502. The compound further had an Absorbance value (pH 3.0, 36 h) of 0.439. For the setting “pH 3.0, 48 h”, this compound registered an Absorbance value of 0.356. The Absorbance value (pH 3.0, 96 h) stood at 0.274.

Source of the values: patent publication US10647669B2, “Composition containing lutein/lutein ester and applications thereof” (priority 2016, dated 2020).
